Results reported in publication PMC4186856, “Structural Basis for Resistance to Diverse Classes of NAMPT Inhibitors” (PLoS ONE, 2014).

Legend:
RD cell line = test: Cellular IC50 in parental RD cell line; type: cell-based; settings: Homo sapiens, read-out: Parental GNE-618 IC50, NAPRT1 negative
NCI-H460 cell line = test: Cellular IC50 in parental NCI-H460 cell line; type: cell-based; settings: Homo sapiens, read-out: Parental GNE-618 IC50, NAPRT1 negative
Mia-Paca2 cell line = test: Cellular IC50 in parental Mia-Paca2 cell line; type: cell-based; settings: Homo sapiens, MIA PaCa-2, read-out: Parental GNE-618 IC50, NAPRT1 negative
NCI-H520 cell line = test: Cellular IC50 in parental NCI-H520 cell line; type: cell-based; settings: Homo sapiens, read-out: Parental GNE-618 IC50, NAPRT1 positive
[1] = test system: RD cell line harboring only the D93 deletion; test: Cellular IC50 shift, RD resistant line (earlier passage) with D93 deletion only; type: cell-based; settings: cell line carrying D93del
[2] = test system: GNE-618 resistant cell lines; test: Total cellular NAD in GNE-618 resistant cell lines; type: cell-based; settings: after GNE-618 at 100-fold the parental line IC50; all resistant lines except those harboring only D93del or S165Y
[3] = test system: cell lines carrying S165Y (NCI-H460); test: Cellular IC50 shift, resistant cell line carrying S165Y; type: cell-based
[4] = test system: GNE-618 resistant cell lines harboring mutations other than D93del only or S165Y; test: Cellular IC50 shift, resistant cell lines harboring the other mutations; type: cell-based; settings: cell lines harboring the other mutations (not D93del only or S165Y)
[5] = test system: 293T cells expressing NAMPT S165F; test: Response of 293T cells expressing NAMPT S165F; type: cell-based; settings: NAMPT S165F expressed in 293T cells
[6] = test system: 293T cells expressing NAMPT S165Y; test: Response of 293T cells expressing NAMPT S165Y; type: cell-based; settings: NAMPT S165Y expressed in 293T cells
[7] = test system: NCI-H460 tumor xenografts; test: NCI-H460 parental xenograft efficacy; type: in vivo, mice; settings: 100 mg/kg, oral, QD for 7 days, p = 0.007 vs. vehicle
[8] = Tolerability in xenograft-bearing mice; type: in vivo; settings: doses tested in NCI-H460 parental and S165Y mutant models, oral QD 7 days
[9] = test system: RD cell line with the S165F mutation; settings: RD parent and S165F resistant line, ± 10 µM nicotinic acid
[10] = test system: NCI-H460 S165Y tumor xenografts; test: NCI-H460 S165Y mutant xenograft efficacy; settings: oral QD, also at higher doses
WT NAMPT = biological target: T1, WT NAMPT (Homo sapiens, UniProt P43490); test: NAMPT enzymatic inhibition, wild-type protein (RapidFire/MS detection of NMN); settings: purified wild-type NAMPT 30 nM; 1 µM NAM, 100 µM PRPP, 2.5 mM ATP; read-out: Biochemical IC50, WT
T1 construct: An expression construct for full length human (XP_540386) NAMPT was constructed using pET21B; His6 (C); made in house; host or cells: E. coli Rosetta (DE3)

NAMPT G217V = biological target: T2, NAMPT G217V (Homo sapiens, UniProt P43490, G217V); test: NAMPT enzymatic inhibition, G217V mutant protein; settings: purified G217V NAMPT 30 nM; 1 µM NAM, 100 µM PRPP, 2.5 mM ATP; read-out: Biochemical IC50, G217V
T2 construct: An expression construct for full length human (XP_540386) NAMPT was constructed using pET21B; His6 (C); made in house; host or cells: E. coli Rosetta (DE3)

NAMPT G217R = biological target: T3, NAMPT G217R (Homo sapiens, UniProt P43490, G217R); test: NAMPT enzymatic inhibition, G217R mutant protein; settings: purified G217R NAMPT 30 nM; 1 µM NAM, 100 µM PRPP, 2.5 mM ATP; read-out: Biochemical IC50, G217R
T3 construct: An expression construct for full length human (XP_540386) NAMPT was constructed using pET21B; His6 (C); made in house; host or cells: E. coli Rosetta (DE3)

NAMPT G217A = biological target: T4, NAMPT G217A (Homo sapiens, UniProt P43490, G217A); test: NAMPT enzymatic inhibition, G217A mutant protein; settings: purified G217A NAMPT 30 nM; 1 µM NAM, 100 µM PRPP, 2.5 mM ATP; read-out: Biochemical IC50, G217A
T4 construct: An expression construct for full length human (XP_540386) NAMPT was constructed using pET21B; His6 (C); made in house; host or cells: E. coli Rosetta (DE3)

NAMPT S165F = biological target: T5, NAMPT S165F (Homo sapiens, UniProt P43490, S165F); test: NAMPT enzymatic inhibition, S165F mutant protein; settings: purified S165F NAMPT 30 nM; 1 µM NAM, 100 µM PRPP, 2.5 mM ATP; read-out: Biochemical IC50, S165F
T5 construct: An expression construct for full length human (XP_540386) NAMPT was constructed using pET21B; His6 (C); made in house; host or cells: E. coli Rosetta (DE3)

NAMPT S165Y = biological target: T6, NAMPT S165Y (Homo sapiens, UniProt P43490, S165Y); test: NAMPT enzymatic inhibition, S165Y mutant protein; settings: purified S165Y NAMPT 50 nM; 1 µM NAM, 100 µM PRPP, 2.5 mM ATP; read-out: Biochemical IC50, S165Y
T6 construct: An expression construct for full length human (XP_540386) NAMPT was constructed using pET21B; His6 (C); made in house; host or cells: E. coli Rosetta (DE3)

NAMPT H191R = biological target: T7, NAMPT H191R (Homo sapiens, UniProt P43490, H191R); test: NAMPT enzymatic inhibition, H191R mutant protein; settings: purified H191R NAMPT 30 nM; 1 µM NAM, 100 µM PRPP, 2.5 mM ATP; read-out: Biochemical IC50, H191R
T7 construct: An expression construct for full length human (XP_540386) NAMPT was constructed using pET21B; His6 (C); made in house; host or cells: E. coli Rosetta (DE3)
T7 sequence (P43490 whole entry H191R): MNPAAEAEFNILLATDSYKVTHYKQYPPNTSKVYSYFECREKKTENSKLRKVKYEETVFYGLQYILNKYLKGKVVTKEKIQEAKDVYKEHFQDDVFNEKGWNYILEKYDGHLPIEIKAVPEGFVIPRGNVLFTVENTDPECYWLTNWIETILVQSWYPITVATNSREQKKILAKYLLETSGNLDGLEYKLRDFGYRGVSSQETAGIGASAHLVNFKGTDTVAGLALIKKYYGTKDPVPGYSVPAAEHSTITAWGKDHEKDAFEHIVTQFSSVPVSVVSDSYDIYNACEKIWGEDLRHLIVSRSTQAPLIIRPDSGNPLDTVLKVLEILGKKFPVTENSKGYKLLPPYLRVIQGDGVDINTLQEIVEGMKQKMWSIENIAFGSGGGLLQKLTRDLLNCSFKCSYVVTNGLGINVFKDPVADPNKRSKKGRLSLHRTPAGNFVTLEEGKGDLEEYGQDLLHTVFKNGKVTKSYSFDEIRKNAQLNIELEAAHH

T6 sequence (P43490 whole entry S165Y): as the sequence (P43490 whole entry H191R) above, with S165Y, R191H counted along it
T4 sequence (P43490 whole entry G217A): as the sequence (P43490 whole entry H191R) above, with R191H, G217A counted along it
T5 sequence (P43490 whole entry S165F): as the sequence (P43490 whole entry H191R) above, with S165F, R191H counted along it
T1 sequence (P43490 whole entry): as the sequence (P43490 whole entry H191R) above, with R191H counted along it
T3 sequence (P43490 whole entry G217R): as the sequence (P43490 whole entry H191R) above, with R191H, G217R counted along it
T2 sequence (P43490 whole entry G217V): as the sequence (P43490 whole entry H191R) above, with R191H, G217V counted along it

| Structure (SMILES) | IC50 (WT NAMPT) | IC50 (NAMPT G217V) | IC50 (NAMPT G217R) | IC50 (NAMPT G217A) | IC50 (NAMPT S165F) | IC50 (NAMPT S165Y) | IC50 (NAMPT H191R) | Sensitivity compared to wild-type NAMPT expression [5] | Sensitivity compared to wild-type NAMPT expression [6] | further results |
| --- | --- | --- | --- | --- | --- | --- | --- | --- | --- | --- |
| O=C(NCc1ccc(S(=O)(=O)c2cccc(C(F)(F)F)c2)cc1)c1cnc2[nH]ncc2c1 [compound 1] | – | – | – | – | – | – | – | diminished sensitivity | diminished sensitivity | IC50 (RD cell line): 2 ± 0.2 nM; IC50 (NCI-H460 cell line): 197 ± 6 nM; IC50 (Mia-Paca2 cell line): 34 ± 2 nM; IC50 (NCI-H520 cell line): 9 ± 0.4 nM; Shift in IC50 vs parental [1]: less than 100 fold; Reduction of cellular NAD [2]: less than 90%; Shift in IC50 vs parental [3]: less than 100 fold; Increase in IC50 vs parental [4]: ≥ 100 fold; Tumor growth inhibition [7]: 54%; Tolerability (weight loss, morbidity, mortality) [8]: well tolerated; IC50 in the presence or absence of 10 µM NA [9]: not significantly different; Response of tumor xenografts to treatment [10]: completely resistant |
| O=C(NCc1ccc(S(=O)(=O)c2cccc(C(F)(F)F)c2)cc1)c1cc2cnccc2s1 [compound 2] | 5 nM | > 5000 nM | > 5000 nM | 191 nM | 15 nM | 21 nM | 2170 nM | – | – | – |
| N#CN=C(NCCCCCCOc1ccc(Cl)cc1)Nc1ccncc1 [compound 9] | – | – | – | – | – | – | – | more modest | more modest | – |
| O=C(/C=C/c1cccnc1)NCCCCC1CCN(C(=O)c2ccccc2)CC1 [compound 11] | – | – | – | – | – | – | – | more modest | more modest | – |

Second part, led by results:

| IC50 (WT NAMPT) | IC50 (NAMPT G217V) | IC50 (NAMPT G217R) | IC50 (NAMPT G217A) | IC50 (NAMPT S165F) | IC50 (NAMPT S165Y) | IC50 (NAMPT H191R) | Structure (SMILES) | Sensitivity compared to wild-type NAMPT expression [5] | Sensitivity compared to wild-type NAMPT expression [6] | further results |
| --- | --- | --- | --- | --- | --- | --- | --- | --- | --- | --- |
| 80 nM | 4160 nM | > 5000 nM | > 5000 nM | 1930 nM | 2530 nM | > 5000 nM | O=C(NCc1ccc(S(=O)(=O)c2ccccc2)cc1)c1cnc2[nH]ncc2c1 [compound 4] | – | – | – |
| 26 nM | > 5000 nM | > 5000 nM | > 5000 nM | 175 nM | 148 nM | > 5000 nM | O=C(NCc1ccc(S(=O)(=O)c2ccc(N3CCOCC3)nc2)cc1)c1cnc2[nH]ncc2c1 [compound 6] | – | – | – |
| 7 nM | 3380 nM | > 5000 nM | 2050 nM | 42 nM | 115 nM | > 5000 nM | CCN(C)c1ncc(S(=O)(=O)c2ccc(CNC(=O)c3cnc4[nH]ncc4c3)cc2)s1 [compound 7] | – | – | – |
